These results are taken from patent publication US20230062278A1, “COMPOUNDS FOR THE TREATMENT OF MYELOFIBROSIS” (ACTUATE THERAPEUTICS, INC., priority 2019, published 2023).

Assay [1] deals with peripheral blood mononuclear cells from MF patients. Nature of the assay: ex vivo colony assay in methylcellulose, primary cells from MF patients. It is filed as cell-based, human. As for the experimental part: (§1) In order to study the effects of 9-ING-41 (alone and in combination with Ruxolitinib) on growth and proliferation in MF, ex vivo colony assays were conducted using primary cells from patients with previously untreated MF and normal bone marrow. The experiments were designed to assess the number, size, and morphology of stem/progenitor cells present in blood both with and without treatment.
(§2) Peripheral blood mononuclear cells from MF patients and bone marrow from healthy patients (control) were plated in methylcellulose in duplicate, containing cytokines, in the presence of either DMSO only, 9-ING-41 only, or a combination of 9-ING-41 and Ruxolitinib (0.05uM). Colonies were counted ten days later, and colony growth frequency, distribution, and morphology were calculated.

Assay [2] deals with bone marrow from healthy patients. Nature of the assay: ex vivo colony assay in methylcellulose, normal bone marrow (control). It is filed as cell-based, human. The conditions noted are these: 9-ING-41 alone. Here is the method: as §1, §2
Assay [3] concerns renal cell carcinoma cell lines. Conditions: renal cell carcinoma cell lines (Pal 2014); cited from earlier work.

Regarding `Cn1cc(C2=C(c3coc4ccc(F)cc34)C(=O)NC2=O)c2cc3c(cc21)OCO3` [9-ING-41, 3-(5-fluorobenzofuran-3-yl)-4-(5-methyl-5H-[1,3]dioxolo[4,5-f]indol-7-yl)pyrrole-2,5-dione], the “primitive granulocytic/erythroid/macrophage/monocyte (GEMM) colony growth” value in assay [1] (9-ING-41 only, MF cases as compared to normal, counted after ten days, FIGS. 1A, 1D, 2A, 2C) was “increased relative to 9-ING-41 concentration”. In addition, the “size and presence of primitive colonies” value in assay [1] (MF cases 1 and 2, Ruxolitinib 0.05 µM where combined) was “increase in very large, fully differentiated primitive colonies”. For the same compound, the “presence of erythroid (BFU-E), granulocytic (CFU-G) and granulocytic/monocytic (CFU-GM) colonies” value in assay [1] (after addition of 9-ING-41, colonies counted ten days after plating, vs DMSO) is on record as “remained proportionally the same”. For the same compound, in assay [2], the colony size entry is “modest increase in colony size”. Further, in assay [3], the “antiproliferative activity: cell-cycle effect” value is “G0-G1 and G2-M phase arrest”.
